This note sets out measurements from patent US8980848B2, “Flavonoid dimers and their use” (The Hong Kong Polytechnic University, priority 2010, dated 2015).

Series [1] is described as follows: Tumor cell line cytotoxicity of flavonoid dimers, LCC6. The class given is cell-based, human. The following applies: human, LCC6 cells, IC50 of compound alone. The method, boiled down:
(§1)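 LCC6, LCC6MDR and L929 cells seeded at 1×10^4 cells/well and exposed to graded doses of flavonoid dimers. Incubation 72 hrs at 37° C., 5% CO2. Read-out: % survivors.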

The next series has as its system LCC6MDR cells. Kind of series: Doxorubicin influx in LCC6MDR cells. Type of series: cell-based, human. The following applies: for Intracellular doxorubicin level, influx: LCC6MDR, after 75 min. The method, then:
(§2) Influx and Efflux Studies. […] 0.15% of DMSO acted as a negative control. The cells were harvested after 0, 15, 30, 45, 75 min for determining the intracellular Doxorubycin concentration as described previously. […] The cells were then washed and further incubated in the presence or absence of compound 18 (1 or 3 μM). At 0, 15, 30, 60, 90, 120, 150 and 180 min, the cells were harvested for measuring the intracellular Doxorubycin concentration.
(§3) Effect of Compound 18 on Doxorubicin Influx and Efflux of MDA435/LCC6MDR Cells. Experiments were performed to determine whether the increased accumulation of doxorubicin in LCC6MDR cells caused by 18 is due to potentiation of doxorubicin influx or inhibition of efflux.

The subject of series [2] is LCC6 cells. In words: Doxorubicin accumulation in LCC6 cells. The class given is cell-based, human. The following applies: 1 μM. From the text:
Doxorubycin accumulation. […] […].

A short description of series [3]: Cytotoxicity of flavonoid dimers, L929 mouse fibroblast. The class given is cell-based. The following applies: mouse, L929 fibroblast cells, IC50 of compound alone, 72 hrs, mouse fibroblast. The method, boiled down:
as §1

Series [4] concerns LdAG83 promastigotes (wild type). In words: In vitro anti-promastigote activity, LdAG83. The class given is cell-based, Leishmania donovani. The following applies: Leishmania donovani, 72 h, read-out: Anti-promastigotes activity (IC50, μM) LdAG83. The method, boiled down: (§4)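 L. donovani (LdAG83 wild type, SSG-resistant Ld39) and L. major Lm50122 promastigotes were seeded at 1×10^5 per well with a concentration series of compound.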

Series [5] deals with Ld39 promastigotes (SSG-resistant). Kind of series: In vitro anti-promastigote activity, Ld39. The class given is cell-based, Leishmania donovani. The following applies: Leishmania donovani, 72 h, read-out: Anti-promastigotes activity (IC50, μM) Ld39. The method in brief:
as §4

The test system of series [6] is LCC6 cells. Kind of series: Doxorubicin efflux in LCC6 cells. Type of series: cell-based, human. The following applies: after 3 hrs. The procedure:
as §2
In the efflux experiments, both LCC6 and LCC6MDR were first pre-loaded with doxorubicin for 2 hrs, washed and the remaining doxorubicin was measured after 0, 15, 30, 60, 90, 120, 150 and 180 min. […] Thus efflux rate of LCC6MDR is higher than LCC6. At 1DM or 3 μM of 18, the doxorubicin efflux rate was unaltered in the wild type LCC6 cells. After 3 hrs, the intracellular doxorubicin levels of LCC cells at 1 μM (3122 FU, 71% of doxorubicin remained) and 3 μM (3103 FU, 71% of doxorubicin remained) were very close to that at 0 μM (2601 FU, 60% of doxorubicin remained), respectively (FIG. 3A).

Series [7] relates to LCC6 cells. Kind of series: Doxorubicin influx in LCC6 cells. The class given is cell-based, human. The following applies: after 75 min. The procedure:
as §2, §3

Series [8] has as its target T1, Pgp (LCC6MDR cells) (Homo sapiens, UniProt P08183). Kind of series: Doxorubicin accumulation in LCC6MDR cells.
In the next series the test system is Raw264.7 cells. Kind of series: Cytotoxicity, mouse macrophage Raw264.7. Type of series: cell-based. The following applies: Mus musculus, RAW264.7, 72 h. The method, boiled down: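 Raw264.7 (1×10^4 cells/well) and primary PEM cells (2×10^4 cells/well) in supplemented DMEM received graded compound doses and were incubated 72 h at 37 °C, 5% CO2. Percent survivors determined; cytotoxicity IC50 used for therapeutic index against antileishmanial IC50.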

Series [9] is described as follows: Tumor cell line cytotoxicity of flavonoid dimers, LCC6MDR. The class given is cell-based, human. The following applies: human, LCC6MDR cells, IC50 of compound alone. The method, boiled down: as §1
The nature of series [10]: Cytotoxicity over LCC6, LCC6MDR and L929 cell lines. Type of series: cell-based, human, mouse. The following applies: human, mouse, LCC6MDR and L929 cell lines; cancer lines LCC6, LCC6MDR and/or L929.
For series [11], the target named is T1, Pgp (LCC6MDR cells). Kind of series: Cell proliferation assay: Pgp-modulating activity, reversal of anticancer drug resistance in LCC6MDR cells. The following applies: for EC50: EC50 of compounds for reversing anticancer drug resistance (nM), LCC6MDR.
The test system of series [12] is LCC6 cells. Kind of series: Cell proliferation assay: paclitaxel on parental LCC6 cells without modulator. The class given is cell-based. The following applies: Homo sapiens, LCC-6, no modulator, read-out: IC50 of paclitaxel of LCC6 in the absence of modulators. From the text: Cell Proliferation Assay.

Structures are written as SMILES.

T1 sequence (P08183 whole entry): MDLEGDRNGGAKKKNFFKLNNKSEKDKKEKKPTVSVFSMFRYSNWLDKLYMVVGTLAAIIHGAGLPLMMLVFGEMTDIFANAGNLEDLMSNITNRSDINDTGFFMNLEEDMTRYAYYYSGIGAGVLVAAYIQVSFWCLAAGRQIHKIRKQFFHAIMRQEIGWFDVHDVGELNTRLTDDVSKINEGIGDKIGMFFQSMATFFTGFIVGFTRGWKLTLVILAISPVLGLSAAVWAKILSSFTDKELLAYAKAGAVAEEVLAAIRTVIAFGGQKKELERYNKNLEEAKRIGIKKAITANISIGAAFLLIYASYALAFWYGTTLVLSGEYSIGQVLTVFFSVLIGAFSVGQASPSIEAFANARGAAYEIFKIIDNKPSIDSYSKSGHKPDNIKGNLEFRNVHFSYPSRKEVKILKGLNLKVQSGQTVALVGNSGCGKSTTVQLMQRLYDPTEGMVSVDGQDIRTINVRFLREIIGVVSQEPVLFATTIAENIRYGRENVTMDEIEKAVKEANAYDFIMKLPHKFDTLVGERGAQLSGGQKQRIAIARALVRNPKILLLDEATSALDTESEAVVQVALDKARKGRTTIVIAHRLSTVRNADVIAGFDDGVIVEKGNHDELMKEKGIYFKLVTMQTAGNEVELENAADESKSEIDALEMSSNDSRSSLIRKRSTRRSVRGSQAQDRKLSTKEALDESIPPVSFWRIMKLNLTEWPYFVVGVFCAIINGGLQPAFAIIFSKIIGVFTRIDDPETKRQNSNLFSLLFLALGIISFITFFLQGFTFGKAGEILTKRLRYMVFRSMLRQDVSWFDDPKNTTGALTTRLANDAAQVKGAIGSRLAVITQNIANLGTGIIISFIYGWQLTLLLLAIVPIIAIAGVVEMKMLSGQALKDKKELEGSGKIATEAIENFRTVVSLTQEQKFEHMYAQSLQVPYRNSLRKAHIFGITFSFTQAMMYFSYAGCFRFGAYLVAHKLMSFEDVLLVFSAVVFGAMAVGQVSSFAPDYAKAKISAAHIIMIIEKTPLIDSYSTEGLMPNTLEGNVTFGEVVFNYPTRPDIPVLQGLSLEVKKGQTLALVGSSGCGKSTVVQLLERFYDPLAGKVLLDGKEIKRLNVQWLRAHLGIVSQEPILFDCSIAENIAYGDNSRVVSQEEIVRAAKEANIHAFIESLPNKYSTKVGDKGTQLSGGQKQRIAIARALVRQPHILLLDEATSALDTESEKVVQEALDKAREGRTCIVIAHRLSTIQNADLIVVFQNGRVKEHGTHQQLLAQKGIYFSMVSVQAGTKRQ

A word on the IC50: it is the concentration needed to halve the response being measured. Broadly, the EC50 is the concentration giving half of the maximal effect. Consider `O=c1cc(-c2ccc(OCCOCCN(CCOCCOc3ccc(-c4cc(=O)c5ccccc5o4)cc3)Cc3ccccc3)cc2)oc2ccccc12` [Compound 18, 1,13-Bis[4′-(4H-chromen-4-on-2-yl)phenyl]-N-(benzyl)-1,4,10,13-tetraoxa-7-azamidecane], for which the half-maximal inhibitory concentration (IC50) at 72 h in series [1] was over 75 µM; in series [3], 85 µM; in series [9], over 63 µM; in series [10], over 63000 nM. Also, in the series on LCC6MDR cells (1 or 3 μM, LCC6 and LCC6MDR), the “Effect on doxorubicin influx” value is recorded as “no effect on doxorubicin influx”. The “Intracellular doxorubicin level, influx” value was 0-803 FU in the series on LCC6MDR cells (1 μM); 0-909 FU with LCC6MDR cells (3 μM); 0-1320 FU with LCC6 cells [7] (LCC6, 1 μM); 0-1035 FU with LCC6 cells [7] (LCC6, 3 μM). For the same molecule, in the series on LCC6 cells [2], the “Effect on intracellular doxorubicin accumulation in parental LCC6” value is reported as “does not increase”. Further, the half-inhibitory concentration (IC50) in series [4] is 8.4 ± 6.1 µM; in [5] it was 12.3 ± 6 µM; in the series with Raw264.7 cells, over 79000 nM. The Doxorubicin remained with LCC6 cells [6] (LCC6, 1 μM) is reported as 71%; in the series on LCC6 cells [6] (LCC6, 3 μM), 71%. For the same molecule, the “Intracellular doxorubicin level, efflux” value in the series on LCC6 cells [6] (LCC6, 1 μM) is listed as 3122 FU; in the series with LCC6 cells [6] (LCC6, 3 μM), 3103 FU. Also, the “Fold more active than verapamil in inhibiting doxorubicin transport activity of Pgp” value at Pgp (LCC6MDR cells) [8] is reported as “roughly 16 fold”. Moreover, the “Concentration to restore doxorubicin accumulation in LCC6MDR to levels of parental LCC6” value on Pgp (LCC6MDR cells) [8] (LCC6MDR) was 500 nM. Besides, the concentration for a half-maximal effect (EC50) stood at 95 ± 25 nM on Pgp (LCC6MDR cells) [11] (Daunorubicin); 131 ± 13 nM on Pgp (LCC6MDR cells) [11] (Doxorubicin); 90 ± 20 nM at Pgp (LCC6MDR cells) [11] (Mitoxantrone); 148 ± 18 nM on Pgp (LCC6MDR cells) [11] (Paclitaxel); 173 ± 27 nM at Pgp (LCC6MDR cells) [11] (Vinblasinte, vinblastine); 179 ± 32 nM on Pgp (LCC6MDR cells) [11] (Vincristine). For the same molecule, at Pgp (LCC6MDR cells) [11] (IC50 of compounds for L929/EC50 of compounds for lowering paclitaxel drug resistance), the Therapeutic index amounted to 574.3.

Consider `CC(=O)O[C@H]1C(=O)[C@@]2(C)[C@H]([C@H](OC(=O)c3ccccc3)[C@]3(O)C[C@H](OC(=O)[C@H](O)[C@@H](NC(=O)c4ccccc4)c4ccccc4)C(C)=C1C3(C)C)[C@]1(OC(C)=O)CO[C@@H]1C[C@@H]2O` [paclitaxel], for which, in the series with LCC6 cells [12], the IC50 is 1.6 ± 0.3 nM.
